Source: patent US11980667B2, “Short TAT oligomers for drug delivery” (The Trustees of Columbia University in the City of New York, priority 2017, dated 2024)

Tests used:
[1] = test system: 9L glioma; test: Quantitative tumor TAT-FITC uptake, electron multiplying charge-coupled device imaging; format: in vivo, rat
Description: In addition to the standard fluorescence imaging described above, we assess tumor uptake of TAT-FITC using a higher resolution, quantitative tool utilizing an electron-multiplying charge coupled device. To accomplish this we used two warm white light LEDs to evenly illuminate the tissue samples through a narrow (10 nm) band pass filter with 470 nm central transmission (Thor Labs, New Jersey). An Evolve 520 high sensitivity electron multiplying charge-coupled device (Photometeric Inc. Tucson, AZ) was utilized while using a 520 nm narrow band pass filter. Each sample was normalized to the background and to the injected drug concentrations. Four 2 mm sections were interrogated for each specimen on either side of the plane of tumor implantation. The data was corrected for ambient light, tissue independent background fluorescence, and contralateral hemisphere tissue fluorescence.

[2] = test system: 9L glioma tumor; test: In vivo uptake of TAT dimer versus monomer by IA-TCH (MSI and confocal imaging); design: species or system rat; details: dimer 0.25 mg, monomer 0.125 mg, five rats each
Protocol: An additional experiment was performed to assess the in vivo uptake of fluorescein-labeled TAT dimer by IA-TCH. About 14 days after 9L glioma tumor implantation, rats were anesthetized and prepared for TAT dimer delivery experiments. TAT dimer was conjugated with fluorescein such that its concentrations in post mortem samples could be determined immediately by multispectral imaging and confocal imaging. TAT dimer (0.25 mg) and monomer (0.125 mg) were tested using IA-TCH delivery both containing equal amounts of fluorescein were evaluated. […] Animals were sacrificed 15 minutes after TAT injection. Brain tissue was harvested.

[3] = test system: C6 glioma; details: IA-TCH, 0.5 mg, N=3
Protocol: For in vivo tumor delivery studies, rats were implanted with C6 brain tumor cells as previously described. […] They were scarified 10 minutes later and the brains were harvested and sectioned.
Fluorescence and electron multiplying charge-coupled device imaging. Fluorescence imaging was done with a white light excitation through a 470 nm filter with central frequency. Emission was observed through a 520 nm band pass filter using a fluorescence camera (Prosilica GE™ AVI Technologies Inc.). All images were normalized to the background and to the injected FITC-TAT concentrations—a sample of which was imaged alongside in a capillary tube.

[4] = test system: 9L glioma tumors; test: Single arrest study: IV versus IA-TCH (multi-spectral imaging and confocal microscopy); format: in vivo, rat
Protocol: Single Arrest Study. 9L glioma tumors were implanted into eight rats. […] Animals were sacrificed 15 minutes after injection. […] Brain tissues were also hematoxylin and eosin stained and imaged by confocal microscopy.

[5] = test system: 9L glioma; test: IA-TCH versus IV delivery: uptake by confocal microscopy imaging of frozen sections; format: in vivo, rat; details: n = 6
Description: Comparison of […] and IV TAT delivery. Fisher 344 rats weighing about 200 g were utilized. During initial surgery under ketamine-xylazine isoflurane anesthesia 5×10^5 9 L cells were implanted 3 mm below the skull and 2-3 mm posterior and lateral to the bregma through a 1 mm craniotomy. […] The animals were assigned separately to IV and IA-TCH groups. On the day of drug delivery, animals were sedated with isoflurane and injected with ketamine/xylazine. The tail vein was cannulated for intravenous access. Under aseptic precautions, a tracheostomy and carotid cannulation were performed. Anesthesia was maintained by mechanical ventilation with isoflurane (1.8-2.2%). Thereafter animals were turned prone on a stereotactic frame. The skull was exposed and the region of tumor implantation was shaved to transparency. A laser Doppler probe was implanted on the skull with the aid of a plastic holder to assess cerebral/tumor blood flow. Rectal temperature, pulse pleth (volume), pulse oxygen saturation, EKG, expired and inspired gas composition, brain and skin blood flow with lase Doppler were continuously monitored.
Transient cerebral hypoperfusion and fluorescein-labeled TAT monomer injection. IA injections were made during TCH by the following method. Reduction of blood flow was achieved by bolus IV injections of adenosine (2 mg) and esmolol (2 mg), and cold saline (1.5 mL at 4° C.). Typically such an intervention decreases cerebral blood flow to about 20% of the baseline. The heart rate response varies from sinus bradycardia to a sinus pause. However, physiological parameters rapidly recover within 3-5 minutes. […] For each animal, a test IA injection was done prior to the onset of hypotension to ensure delivery of the desired injection volume and the injection sequence was resumed after bolus IV injections of hypotensive drugs.
Frozen sections (10 μm thick) were imaged under a Nikon confocal microscope with 470 nm excitation. Due to the large size of the tissue sample, small sections of images were obtained and then assembled together. An adjacent section was stained with hematoxylin and eosin to confirm the size and location of the tumor. The total fluorescence in the tumor region, in the non-tumor ipsi-lateral hemisphere, and in the corresponding region contra-lateral to the tumor was quantified. The contra-lateral hemisphere was used for background correction.

[6] = IV injection, confocal microscopy
[7] = IV injection, multi-spectral imaging

## N=C(N)NCCC[C@H](NC(=O)CNC(=O)c1ccc2c(c1)C(=O)OC21c2ccc(O)cc2Oc2cc(O)ccc21)C(=O)N[C@@H](CCCCN)C(=O)N[C@@H](CCCCN)C(=O)N[C@@H](CCCNC(=N)N)C(=O)N[C@@H](CCCNC(=N)N)C(=O)N[C@@H](CCC(N)=O)C(=O)N[C@@H](CCCNC(=N)N)C(=O)N[C@@H](CCCNC(=N)N)C(=O)N[C@@H](CCCNC(=N)N)C(=O)N1CCC[C@H]1C(=O)N1CCC[C@H]1C(=O)N[C@@H](CCC(N)=O)C(=O)N[C@@H](CCC(N)=O)C(=O)O [fluorescein-labeled TAT monomer, 5-FAM-GRKKRRQRRR PPQQ-COOH]
[1]; IA-TCH, N=8
  Tumor TAT deposition compared to the corresponding contralateral region: 11.7 fold
[1]; six animals, FIG. 19E
  Fluorescence in the tumor compared to the ipsilateral non-tumor regions: 7.4 ×
  Fluorescence in the tumor compared to the tumor site on the contralateral hemisphere: 10.5 ×
[2]
  Tumor selective delivery: able to achieve tumor selective drug delivery
[3]
  Deposition in tumor (semi-quantitative fluorescence imaging): preferentially targeted to the tumor mass in all animals
[4]; IA-TCH
  Tumor selectivity: 5-6 ×
[4]; IA-TCH, confocal microscopy
  Fluorescence in the tumor versus the contralateral hemisphere: 10.78 ×
  Fluorescence in the tumor versus the ipsilateral brain tissue: 5.07 ×
[4]; IA-TCH, multi-spectral imaging
  Fluorescence in the tumor versus the contralateral hemisphere: 9.90 ×
  Fluorescence in the tumor versus the ipsilateral brain tissue: 5.93 ×
[4]; [6]
  Fluorescence in the tumor versus the contralateral hemisphere: 2.61 ×
  Fluorescence in the tumor versus the ipsilateral brain tissue: 2.43 ×
[4]; [7]
  Fluorescence in the tumor versus the contralateral hemisphere: 2.72 ×
  Fluorescence in the tumor versus the ipsilateral brain tissue: 2.59 ×
[4]; IV injections
  Tumor selectivity: 2 ×
[4]; rat, in vivo, iv
  Tumor concentration, IA-TCH relative to IV: about four-fold greater
[5]; IA-TCH
  Contralateral fluorescence: 161 ± 94 AU
  Ipsi-lateral fluorescence: 353 ± 76 AU
  Ipsi/contralateral ratio: 2.7 ± 1.4
  Tumor fluorescence: 1758 ± 474 AU
  Tumor/contralateral ratio: 13.8 ± 7.6
  Tumor/ipsi-lateral ratio: 4.9 ± 0.7
[5]; IV
  Contralateral fluorescence: 205 ± 67 AU
  Ipsi-lateral fluorescence: 216 ± 65 AU
  Ipsi/contralateral ratio: 1.1 ± 0.5
  Tumor fluorescence: 528 ± 246 AU
  Tumor/contralateral ratio: 3.0 ± 1.4
  Tumor/ipsi-lateral ratio: 2.4 ± 1.1
